Format in all cases: binding
In experiment [1] the target is T1, HMGB1 (high mobility group box 1) (Homo sapiens, UniProt P09429).
T1 construct: recombinant full length, pET-24d, E. coli BL21, Ni-NTA purified; a recombinant human HMGB1 was also bought from Abcam
T1 sequence (P09429 1-215): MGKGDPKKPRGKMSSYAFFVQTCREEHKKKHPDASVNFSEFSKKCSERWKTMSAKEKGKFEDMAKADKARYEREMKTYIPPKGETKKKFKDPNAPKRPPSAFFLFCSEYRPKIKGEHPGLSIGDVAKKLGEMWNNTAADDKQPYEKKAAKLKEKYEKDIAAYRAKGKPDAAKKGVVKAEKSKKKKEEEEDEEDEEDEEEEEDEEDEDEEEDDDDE
The experiment is described as follows: surface plasmon resonance, CM5 chip, steady-state […]. A general note: In SPR one partner is held on a chip, and binding of the other changes the refractive index at the surface.

The target in experiment [2] is T2, LDHA (lactate dehydrogenase A) (Homo sapiens, UniProt P00338).
T2 construct: recombinant human LDHA obtained from Abcam
The description is as above.

The target of experiment [3] is T3, PKM2 (pyruvate kinase M2) (Homo sapiens, UniProt P14618).
T3 construct: gene PKM; recombinant, pET28a, E. coli BL21, Ni-NTA purified; full length implied
The experiment is described as above.

The next experiment addresses T4, HMGB1 B box (Homo sapiens, UniProt P09429).
T4 construct: B box domain (contains Cys106)
T4 sequence (P09429 95-163 limits assumed): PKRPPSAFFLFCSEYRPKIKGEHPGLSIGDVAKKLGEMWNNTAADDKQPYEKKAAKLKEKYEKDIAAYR
As to the kind of experiment: UV-visible absorption; competition with Cel-P labelling. The note with it: 100 μmol/L Cel; covalent.

The target in experiment [4] is T3, PKM2 (pyruvate kinase M2). As to the kind of experiment: probe labelling, click chemistry, in-gel fluorescence. The note with it: room temperature; PBS; covalent.
Experiment [5] concerns the target T1, HMGB1 (high mobility group box 1). The experiment is described as above. The note with it: room temperature; PBS; covalent.

One may read the Kd as the equilibrium constant for the complex coming apart.

T3 sequence (P14618 2-531): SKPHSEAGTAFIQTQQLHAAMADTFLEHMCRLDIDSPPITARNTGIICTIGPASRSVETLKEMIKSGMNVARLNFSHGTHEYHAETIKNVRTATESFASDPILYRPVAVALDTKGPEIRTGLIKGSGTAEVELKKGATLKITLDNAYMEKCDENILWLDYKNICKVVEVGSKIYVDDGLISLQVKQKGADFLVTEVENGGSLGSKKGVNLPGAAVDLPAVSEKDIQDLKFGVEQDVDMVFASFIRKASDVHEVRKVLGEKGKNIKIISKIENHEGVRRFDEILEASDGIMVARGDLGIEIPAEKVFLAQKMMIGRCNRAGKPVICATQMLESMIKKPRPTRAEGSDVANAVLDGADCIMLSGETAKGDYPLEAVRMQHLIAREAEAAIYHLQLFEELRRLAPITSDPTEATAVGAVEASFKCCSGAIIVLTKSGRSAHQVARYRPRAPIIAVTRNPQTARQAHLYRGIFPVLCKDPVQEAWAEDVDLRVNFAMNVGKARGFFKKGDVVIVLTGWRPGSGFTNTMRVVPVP

For `CC1=C(O)C(=O)C=C2C1=CC=C1[C@@]2(C)CC[C@@]2(C)[C@@H]3C[C@](C)(C(=O)O)CC[C@]3(C)CC[C@]12C` [Cel, Celastrol], the dissociation constant Kd stood at 4.44 µM in experiment [1], 562 µM in experiment [2] and 635 µM in experiment [3]. Also, the “UV-visible absorption; competition with Cel-P labelling” value on HMGB1 B box is “UV–visible absorption by Cel decreased upon mixing with the B box domain”.

Regarding `C#CCNC(=O)[C@]1(C)CC[C@]2(C)CC[C@]3(C)C4=CC=C5C(=CC(=O)C(O)=C5C)[C@]4(C)CC[C@@]3(C)[C@@H]2C1` [Cel-P, celastrol-probe], the “probe labelling, click chemistry, in-gel fluorescence” value in experiment [4] is “These proteins were labeled with Cel-P in a dose-dependent manner”; in experiment [5], “Cel-P labeled recombinant human HMGB1 (Fig. 6c)”.

Source of the values: publication PMC9121578, “Celastrol mitigates inflammation in sepsis by inhibiting the PKM2-dependent Warburg effect” (Military Medical Research, 2022).
